Test results taken from the kinase profiling compilation of Christmann-Franck et al. (2016).

What was measured:
Assay in all cases: KINOMEscan competition binding
Conditions in all cases: compound 10.0 µM
MET (human) = MET (human) (UniProt P08581)
PRKAA2 (human) = PRKAA2 (human) (UniProt P54646)
BRSK1 (human) = BRSK1 (human) (UniProt Q8TDC3)
CDK18 (human) = CDK18 (human) (UniProt Q07002)
PIP4K2B (human) = PIP4K2B (human) (UniProt P78356)
NUAK2 (human) = NUAK2 (human) (UniProt Q9H093)
[1] = tested on: KIT (human), P10721 [D816V]
[2] = tested on: ABL1 (human), P00519 [F317I]
TXK (human) = TXK (human) (UniProt P42681)
MAPK1 (human) = MAPK1 (human) (UniProt P28482)
FYN (human) = FYN (human) (UniProt P06241)
PIK3CD (human) = PIK3CD (human) (UniProt O00329)
CSNK1A1L (human) = CSNK1A1L (human) (UniProt Q8N752)
GSK3A (human) = GSK3A (human) (UniProt P49840)
CDK3 (human) = CDK3 (human) (UniProt Q00526)
GSK3B (human) = GSK3B (human) (UniProt P49841)
OXSR1 (human) = OXSR1 (human) (UniProt O95747)
MKNK2 (human) = MKNK2 (human) (UniProt Q9HBH9)
CaMK1 (human) = CaMK1 (human) (UniProt Q14012)
[3] = tested on: FLT3 (human), P36888 [K663Q]
ADCK3 (human) = ADCK3 (human) (UniProt Q8NI60)
RPS6KA4 KD1 (human) = RPS6KA4 KD1 (human) (UniProt O75676)
NEK9 (human) = NEK9 (human) (UniProt Q8TD19)
ERN1 (human) = ERN1 (human) (UniProt O75460)
GRK1 (human) = GRK1 (human) (UniProt Q15835)
TESK1 (human) = TESK1 (human) (UniProt Q15569)
STK17B (human) = STK17B (human) (UniProt O94768)
STK24 (human) = STK24 (human) (UniProt Q9Y6E0)
MERTK (human) = MERTK (human) (UniProt Q12866)
DCLK2 (human) = DCLK2 (human) (UniProt Q8N568)
FGFR3 (human) = FGFR3 (human) (UniProt P22607)
TEK (human) = TEK (human) (UniProt Q02763)
[4] = tested on: FLT3 (human), P36888 [D835Y]
PTK6 (human) = PTK6 (human) (UniProt Q13882)
ULK3 (human) = ULK3 (human) (UniProt Q6PHR2)
LIMK1 (human) = LIMK1 (human) (UniProt P53667)
PDGFRB (human) = PDGFRB (human) (UniProt P09619)
[5] = tested on: BRAF (human), P15056 [V600E]
RPS6KA1 KD2 (human) = RPS6KA1 KD2 (human) (UniProt Q15418)
[6] = tested on: KIT (human), P10721 [V559D/T670I]
DDR2 (human) = DDR2 (human) (UniProt Q16832)
ABL1 (human) = ABL1 (human) (UniProt P00519)
Chain of ABL1 (human) (P00519 whole entry, looked up): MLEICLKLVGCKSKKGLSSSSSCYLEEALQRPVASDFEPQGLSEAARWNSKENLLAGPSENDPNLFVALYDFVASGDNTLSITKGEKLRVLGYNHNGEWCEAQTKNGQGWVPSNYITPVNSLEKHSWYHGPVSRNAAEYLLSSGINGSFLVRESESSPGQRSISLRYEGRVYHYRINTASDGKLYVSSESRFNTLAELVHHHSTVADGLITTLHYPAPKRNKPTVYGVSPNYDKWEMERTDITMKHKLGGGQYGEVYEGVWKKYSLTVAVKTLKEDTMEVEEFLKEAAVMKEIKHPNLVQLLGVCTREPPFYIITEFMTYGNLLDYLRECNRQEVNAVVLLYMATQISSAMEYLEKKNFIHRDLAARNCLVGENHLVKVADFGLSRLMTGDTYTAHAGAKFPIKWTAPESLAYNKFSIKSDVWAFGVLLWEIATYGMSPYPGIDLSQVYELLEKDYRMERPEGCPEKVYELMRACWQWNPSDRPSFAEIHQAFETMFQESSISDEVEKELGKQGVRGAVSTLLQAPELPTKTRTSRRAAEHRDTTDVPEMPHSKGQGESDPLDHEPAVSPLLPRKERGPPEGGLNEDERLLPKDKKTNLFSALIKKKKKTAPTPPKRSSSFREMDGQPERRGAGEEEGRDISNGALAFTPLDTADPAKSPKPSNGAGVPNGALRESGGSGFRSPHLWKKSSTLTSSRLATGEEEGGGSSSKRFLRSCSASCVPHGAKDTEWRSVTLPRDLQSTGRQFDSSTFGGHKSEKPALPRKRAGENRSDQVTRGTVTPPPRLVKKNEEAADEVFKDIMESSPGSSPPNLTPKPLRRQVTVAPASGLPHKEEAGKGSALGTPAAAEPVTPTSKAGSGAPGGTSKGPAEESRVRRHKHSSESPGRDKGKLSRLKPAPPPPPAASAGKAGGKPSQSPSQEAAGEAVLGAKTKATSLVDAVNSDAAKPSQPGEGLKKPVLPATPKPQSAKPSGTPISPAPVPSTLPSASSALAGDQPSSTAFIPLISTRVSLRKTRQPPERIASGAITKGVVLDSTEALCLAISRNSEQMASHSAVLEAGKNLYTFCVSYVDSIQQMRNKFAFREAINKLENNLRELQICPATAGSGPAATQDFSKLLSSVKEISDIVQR

Chain of MKNK2 (human) (Q9HBH9 whole entry, looked up): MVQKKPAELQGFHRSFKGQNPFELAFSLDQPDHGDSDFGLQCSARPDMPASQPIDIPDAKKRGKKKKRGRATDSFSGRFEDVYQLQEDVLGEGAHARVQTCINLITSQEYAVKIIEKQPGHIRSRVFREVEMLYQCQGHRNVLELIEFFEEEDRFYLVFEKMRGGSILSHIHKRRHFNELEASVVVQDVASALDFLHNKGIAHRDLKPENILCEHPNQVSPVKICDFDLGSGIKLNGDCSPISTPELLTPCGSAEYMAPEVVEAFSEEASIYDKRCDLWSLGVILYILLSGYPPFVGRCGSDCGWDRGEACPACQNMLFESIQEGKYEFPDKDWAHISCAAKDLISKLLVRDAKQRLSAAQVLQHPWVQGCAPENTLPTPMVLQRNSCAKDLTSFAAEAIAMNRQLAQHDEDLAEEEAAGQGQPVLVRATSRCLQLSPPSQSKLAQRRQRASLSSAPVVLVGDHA
Chain of ABL1 (human), P00519 [F317I] (P00519 whole entry F317I, looked up): as the sequence (P00519 whole entry, looked up) above, with F317I counted along it
Chain of DDR2 (human) (Q16832 whole entry, looked up): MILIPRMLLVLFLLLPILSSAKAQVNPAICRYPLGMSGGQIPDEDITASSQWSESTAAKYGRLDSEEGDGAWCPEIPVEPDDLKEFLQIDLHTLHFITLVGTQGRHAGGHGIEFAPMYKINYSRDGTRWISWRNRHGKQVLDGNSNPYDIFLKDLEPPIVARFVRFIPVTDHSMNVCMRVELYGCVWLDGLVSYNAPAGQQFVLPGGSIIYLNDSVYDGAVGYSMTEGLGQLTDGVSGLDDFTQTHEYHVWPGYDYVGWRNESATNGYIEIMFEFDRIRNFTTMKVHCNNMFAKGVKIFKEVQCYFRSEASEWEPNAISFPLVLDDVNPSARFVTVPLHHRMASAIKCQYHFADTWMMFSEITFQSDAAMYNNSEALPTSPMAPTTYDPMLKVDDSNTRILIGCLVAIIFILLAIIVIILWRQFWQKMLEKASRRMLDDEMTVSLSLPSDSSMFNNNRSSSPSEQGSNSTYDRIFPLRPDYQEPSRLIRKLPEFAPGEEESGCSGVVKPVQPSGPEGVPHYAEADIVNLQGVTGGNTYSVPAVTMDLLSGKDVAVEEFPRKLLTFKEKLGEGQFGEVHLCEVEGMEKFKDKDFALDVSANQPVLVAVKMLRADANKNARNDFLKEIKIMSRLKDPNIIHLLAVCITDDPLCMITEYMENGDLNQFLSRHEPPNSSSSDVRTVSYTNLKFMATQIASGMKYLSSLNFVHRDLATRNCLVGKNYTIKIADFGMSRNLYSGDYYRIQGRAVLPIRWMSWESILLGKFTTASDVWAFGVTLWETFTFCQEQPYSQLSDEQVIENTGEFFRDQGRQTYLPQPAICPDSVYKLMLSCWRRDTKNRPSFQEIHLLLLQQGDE
Chain of ERN1 (human) (O75460 whole entry, looked up): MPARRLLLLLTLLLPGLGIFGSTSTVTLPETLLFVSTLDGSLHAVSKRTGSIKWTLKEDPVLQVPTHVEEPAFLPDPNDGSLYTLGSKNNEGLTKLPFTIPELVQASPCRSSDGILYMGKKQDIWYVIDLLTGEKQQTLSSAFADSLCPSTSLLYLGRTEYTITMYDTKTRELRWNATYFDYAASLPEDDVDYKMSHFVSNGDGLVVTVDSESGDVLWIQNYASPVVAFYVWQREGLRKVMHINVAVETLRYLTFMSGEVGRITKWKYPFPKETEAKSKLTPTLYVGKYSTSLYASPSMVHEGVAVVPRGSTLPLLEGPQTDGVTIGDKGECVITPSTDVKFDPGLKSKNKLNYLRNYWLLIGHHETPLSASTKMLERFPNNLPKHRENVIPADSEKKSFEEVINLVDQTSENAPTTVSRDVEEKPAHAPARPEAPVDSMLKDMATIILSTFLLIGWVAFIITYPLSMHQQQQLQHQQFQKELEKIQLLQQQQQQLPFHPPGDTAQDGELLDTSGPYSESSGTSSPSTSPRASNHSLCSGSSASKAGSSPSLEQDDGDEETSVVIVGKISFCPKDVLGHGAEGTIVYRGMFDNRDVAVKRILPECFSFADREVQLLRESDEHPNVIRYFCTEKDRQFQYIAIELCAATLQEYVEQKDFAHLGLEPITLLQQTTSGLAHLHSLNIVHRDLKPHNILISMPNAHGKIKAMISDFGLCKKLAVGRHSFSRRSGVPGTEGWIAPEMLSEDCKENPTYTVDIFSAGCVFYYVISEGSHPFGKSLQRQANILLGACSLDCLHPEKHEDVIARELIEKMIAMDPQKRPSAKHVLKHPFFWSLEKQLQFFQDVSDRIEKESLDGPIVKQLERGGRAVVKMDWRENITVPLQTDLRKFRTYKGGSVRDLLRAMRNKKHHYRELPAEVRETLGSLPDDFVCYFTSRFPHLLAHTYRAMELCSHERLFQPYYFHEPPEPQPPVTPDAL
Chain of FGFR3 (human) (P22607 whole entry, looked up): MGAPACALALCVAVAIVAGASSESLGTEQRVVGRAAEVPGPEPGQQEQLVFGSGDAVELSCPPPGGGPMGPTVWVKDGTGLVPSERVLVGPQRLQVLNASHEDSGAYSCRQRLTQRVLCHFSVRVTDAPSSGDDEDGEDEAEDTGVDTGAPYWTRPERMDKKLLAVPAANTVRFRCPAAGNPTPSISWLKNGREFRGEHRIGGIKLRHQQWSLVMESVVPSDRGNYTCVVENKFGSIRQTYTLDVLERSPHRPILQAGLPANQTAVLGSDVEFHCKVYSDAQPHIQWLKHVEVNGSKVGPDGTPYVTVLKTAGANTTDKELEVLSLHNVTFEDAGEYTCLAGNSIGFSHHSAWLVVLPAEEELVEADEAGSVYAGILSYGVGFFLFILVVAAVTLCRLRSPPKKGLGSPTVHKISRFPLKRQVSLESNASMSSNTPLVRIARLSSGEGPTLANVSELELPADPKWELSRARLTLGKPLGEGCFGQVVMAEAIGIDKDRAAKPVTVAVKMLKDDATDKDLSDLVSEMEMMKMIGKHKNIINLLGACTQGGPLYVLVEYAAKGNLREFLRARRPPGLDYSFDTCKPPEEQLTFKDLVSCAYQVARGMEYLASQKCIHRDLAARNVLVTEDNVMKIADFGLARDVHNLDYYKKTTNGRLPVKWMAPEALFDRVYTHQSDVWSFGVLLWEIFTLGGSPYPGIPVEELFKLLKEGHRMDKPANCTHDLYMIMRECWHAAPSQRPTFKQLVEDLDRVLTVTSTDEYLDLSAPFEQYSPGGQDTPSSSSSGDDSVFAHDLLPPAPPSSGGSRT
Chain of STK17B (human) (O94768 whole entry, looked up): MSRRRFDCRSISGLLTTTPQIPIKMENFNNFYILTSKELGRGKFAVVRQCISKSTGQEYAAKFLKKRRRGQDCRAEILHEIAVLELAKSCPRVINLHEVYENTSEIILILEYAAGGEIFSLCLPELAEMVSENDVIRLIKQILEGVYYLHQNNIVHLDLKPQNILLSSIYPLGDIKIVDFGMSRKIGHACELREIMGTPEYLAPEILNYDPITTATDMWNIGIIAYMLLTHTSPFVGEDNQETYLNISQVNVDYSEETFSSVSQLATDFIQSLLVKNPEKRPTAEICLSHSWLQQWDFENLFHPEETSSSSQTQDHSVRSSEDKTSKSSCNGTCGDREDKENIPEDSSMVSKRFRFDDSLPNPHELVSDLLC
Chain of PIP4K2B (human) (P78356 whole entry, looked up): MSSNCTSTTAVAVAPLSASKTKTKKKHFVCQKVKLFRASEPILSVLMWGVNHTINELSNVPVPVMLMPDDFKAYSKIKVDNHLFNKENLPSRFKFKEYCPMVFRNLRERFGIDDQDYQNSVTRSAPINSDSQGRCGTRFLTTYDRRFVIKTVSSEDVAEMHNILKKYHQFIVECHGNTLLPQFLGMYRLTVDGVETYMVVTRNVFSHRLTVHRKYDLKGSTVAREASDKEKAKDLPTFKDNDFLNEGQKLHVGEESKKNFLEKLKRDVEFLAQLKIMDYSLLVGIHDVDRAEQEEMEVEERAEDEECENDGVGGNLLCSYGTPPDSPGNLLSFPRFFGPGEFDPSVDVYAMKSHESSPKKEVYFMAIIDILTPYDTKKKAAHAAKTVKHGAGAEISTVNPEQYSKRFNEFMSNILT

Cc1cnc(-c2cnc(NCCNc3ccc(C#N)cn3)nc2-c2ccc(Cl)cc2Cl)[nH]1
kinase still bound, per cent of control (MET (human)): 96% | kinase still bound, per cent of control (PRKAA2 (human)): 56% | kinase still bound, per cent of control (BRSK1 (human)): 100% | kinase still bound, per cent of control (CDK18 (human)): 100% | kinase still bound, per cent of control (PIP4K2B (human)): 98% | kinase still bound, per cent of control (NUAK2 (human)): 94% | kinase still bound, per cent of control [1]: 100% | kinase still bound, per cent of control [2]: 100% | kinase still bound, per cent of control (TXK (human)): 100% | kinase still bound, per cent of control (MAPK1 (human)): 100% | kinase still bound, per cent of control (FYN (human)): 100% | kinase still bound, per cent of control (PIK3CD (human)): 93% | kinase still bound, per cent of control (CSNK1A1L (human)): 100% | kinase still bound, per cent of control (GSK3A (human)): 0% | kinase still bound, per cent of control (CDK3 (human)): 89% | kinase still bound, per cent of control (GSK3B (human)): 1% | kinase still bound, per cent of control (OXSR1 (human)): 70% | kinase still bound, per cent of control (MKNK2 (human)): 82% | kinase still bound, per cent of control (CaMK1 (human)): 100% | kinase still bound, per cent of control [3]: 78% | kinase still bound, per cent of control (ADCK3 (human)): 100% | kinase still bound, per cent of control (RPS6KA4 KD1 (human)): 64% | kinase still bound, per cent of control (NEK9 (human)): 100% | kinase still bound, per cent of control (ERN1 (human)): 100% | kinase still bound, per cent of control (GRK1 (human)): 96% | kinase still bound, per cent of control (TESK1 (human)): 100% | kinase still bound, per cent of control (STK17B (human)): 84% | kinase still bound, per cent of control (STK24 (human)): 97% | kinase still bound, per cent of control (MERTK (human)): 100% | kinase still bound, per cent of control (DCLK2 (human)): 100% | kinase still bound, per cent of control (FGFR3 (human)): 100% | kinase still bound, per cent of control (TEK (human)): 100% | kinase still bound, per cent of control [4]: 46% | kinase still bound, per cent of control (PTK6 (human)): 100% | kinase still bound, per cent of control (ULK3 (human)): 100% | kinase still bound, per cent of control (LIMK1 (human)): 100% | kinase still bound, per cent of control (PDGFRB (human)): 74% | kinase still bound, per cent of control [5]: 49% | kinase still bound, per cent of control (RPS6KA1 KD2 (human)): 91% | kinase still bound, per cent of control [6]: 91% | kinase still bound, per cent of control (DDR2 (human)): 100% | kinase still bound, per cent of control (ABL1 (human)): 96%

Cn1cc(C2=C(c3ccc(Cl)cc3Cl)C(=O)NC2=O)c2ccccc21
kinase still bound, per cent of control (MET (human)): 79% | kinase still bound, per cent of control (PRKAA2 (human)): 52% | kinase still bound, per cent of control (BRSK1 (human)): 90% | kinase still bound, per cent of control (CDK18 (human)): 7.4% | kinase still bound, per cent of control (PIP4K2B (human)): 86% | kinase still bound, per cent of control (NUAK2 (human)): 100% | kinase still bound, per cent of control [1]: 89% | kinase still bound, per cent of control [2]: 100% | kinase still bound, per cent of control (TXK (human)): 100% | kinase still bound, per cent of control (MAPK1 (human)): 100% | kinase still bound, per cent of control (FYN (human)): 96% | kinase still bound, per cent of control (PIK3CD (human)): 100% | kinase still bound, per cent of control (CSNK1A1L (human)): 100% | kinase still bound, per cent of control (GSK3A (human)): 0% | kinase still bound, per cent of control (CDK3 (human)): 14% | kinase still bound, per cent of control (GSK3B (human)): 2% | kinase still bound, per cent of control (OXSR1 (human)): 100% | kinase still bound, per cent of control (MKNK2 (human)): 89% | kinase still bound, per cent of control (CaMK1 (human)): 98% | kinase still bound, per cent of control [3]: 62% | kinase still bound, per cent of control (ADCK3 (human)): 100% | kinase still bound, per cent of control (RPS6KA4 KD1 (human)): 100% | kinase still bound, per cent of control (NEK9 (human)): 100% | kinase still bound, per cent of control (ERN1 (human)): 100% | kinase still bound, per cent of control (GRK1 (human)): 83% | kinase still bound, per cent of control (TESK1 (human)): 100% | kinase still bound, per cent of control (STK17B (human)): 100% | kinase still bound, per cent of control (STK24 (human)): 69% | kinase still bound, per cent of control (MERTK (human)): 100% | kinase still bound, per cent of control (DCLK2 (human)): 100% | kinase still bound, per cent of control (FGFR3 (human)): 97% | kinase still bound, per cent of control (TEK (human)): 73% | kinase still bound, per cent of control [4]: 16% | kinase still bound, per cent of control (PTK6 (human)): 100% | kinase still bound, per cent of control (ULK3 (human)): 100% | kinase still bound, per cent of control (LIMK1 (human)): 93% | kinase still bound, per cent of control (PDGFRB (human)): 82% | kinase still bound, per cent of control [5]: 78% | kinase still bound, per cent of control (RPS6KA1 KD2 (human)): 53% | kinase still bound, per cent of control [6]: 92% | kinase still bound, per cent of control (DDR2 (human)): 84% | kinase still bound, per cent of control (ABL1 (human)): 100%
